This is an account of results in PMC3981819, “Signaling Properties and Pharmacological Analysis of Two Sulfakinin Receptors from the Red Flour Beetle, Tribolium castaneum” (PLoS ONE, 2014).

The subject of assay [1] is Trica-SKR2. Put plainly: Aequorin-luminescence assay, CHO-PAM28 cells (no Gα16) transfected with Trica-SKR2. Format: cell-based, Tribolium castaneum. The following applies: CHO-PAM28 cells without Gα16; aequorin bioluminescence (Ca2+); three independent measurements in duplicate; read-out: EC50 for receptor activation in CHO-PAM28 cells, Trica-SKR2. The protocol:
(§1) General pharmacological studies were performed in Chinese Hamster Ovary (CHO) WTA11 cells, stably coexpressing apoaequorin, a zeocin resistance gene and the promiscuous Gα16, which couples most agonist-induced GPCRs to the phospholipase C and Ca^2+ pathway irrespective of their natural signaling cascade. CHO-PAM28 cells stably expressing apoaequorin and a puromycin resistance gene but not Gα16 and HEK293T cells (Invitrogen) were used to determine possible effects on Ca^2+ and/or cAMP second messenger systems, respectively. […]
(§2) Cells were cultured in vitro as a monolayer at 37°C with a constant supply of 5% CO2 and were subcultivated twice a week. […] HEK 293T cells were cotransfected with a receptor construct (6 μg) and CRE-luciferase reporter construct (3 μg), consisting of the open reading frame of the luciferase gene, downstream of a multimerized cAMP-response-element (CRE) and promoter. […] Cells were again incubated overnight for a final growth phase before luminescence screens were performed.
(§3) The aequorin luminescence assay was used to measure Ca^2+ signaling in CHO cell lines. […] The viable cells were quantified using a NucleoCounter NC-100 (Chemometic). […] Incubated cells were added to the wells of the 96-well plate and light emission was measured for 30 s using a Mithras LB940 (Berthold Technologies). […]

For assay [2], the system named is HEK293T cells transfected with empty pcDNA3.1/V5-His-TOPO TA expression vector. Put plainly: CRE-luciferase reporter-gene assay, HEK293T cells transfected with empty expression vector. The following applies: CRE-luciferase bioluminescence. It is filed as cell-based. Here is the method:
as §1, §2
(§4) The luciferase reporter-gene assay was used to quantify positive or negative coupling of the receptor to cAMP in HEK293T cells. Cotransfected HEK293T cells were detached and the viable cells were quantified using the NucleoCounter NC-100 (Chemometic) as described for CHO cells. […] Data were analyzed as described for CHO cells.

Assay [3] has as its system Trica-SKR1. Put plainly: Aequorin-luminescence assay, CHO-PAM28 cells (no Gα16) transfected with Trica-SKR1. The note with it: CHO-PAM28 cells without Gα16; aequorin bioluminescence (Ca2+); three independent measurements in duplicate; read-out: EC50 for receptor activation in CHO-PAM28 cells, Trica-SKR1. It is filed as cell-based, Tribolium castaneum. Here is the method: as §1, §2, §3

The subject of assay [4] is CHO-PAM28 cells transfected with empty pcDNA3.1/V5-His-TOPO TA expression vector. Nature of the assay: Aequorin-luminescence assay, CHO-PAM28 cells transfected with empty expression vector. The note with it: aequorin bioluminescence. Format: cell-based, Chinese Hamster. The protocol:
as §1, §2, §3

The subject of assay [5] is Trica-SKR2. Nature of the assay: Aequorin-luminescence assay, CHO-WTA11 cells (Gα16) transfected with Trica-SKR2. It is filed as cell-based, Tribolium castaneum. The note with it: aequorin bioluminescence. Here is the method: (§5) General pharmacological studies were performed in Chinese Hamster Ovary (CHO) WTA11 cells, stably coexpressing apoaequorin, a zeocin resistance gene and the promiscuous Gα16, which couples most agonist-induced GPCRs to the phospholipase C and Ca^2+ pathway irrespective of their natural signaling cascade. CHO-PAM28 cells stably expressing apoaequorin and a puromycin resistance gene but not Gα16 and HEK293T cells (Invitrogen) were used to determine possible effects on Ca^2+ and/or cAMP second messenger systems, respectively. All cell lines were cultured in Dulbecco’s Modified Eagles Medium nutrient mixture F12-Ham (DMEM/F12; Invitrogen) supplemented with 1% penicillin/streptomycin (10000 units/ml penicillin and 10 mg/ml streptomycin in 0.9% NaCl; Invitrogen) to prevent bacterial contamination of gram-positive and gram-negative bacteria. In CHO-WTA11 culture medium 250 μg/ml zeocin (Invitrogen) was added as a selection marker, while CHO-PAM28 culture medium was supplemented with 5 μg/ml puromycin to select cells stably expressing apoaequorin. All cell culture media were supplemented with 10% fetal bovine serum (inactivated at […]; Sigma-Aldrich).
(§6) Cells were cultured in vitro as a monolayer at 37°C with a constant supply of 5% CO2 and were subcultivated twice a week. Transfections of cells were performed in T75 flasks at 60–80% confluency. Transfection reagent for CHO cells was prepared by combining 3.75 ml Opti-MEM I (Invitrogen), 7.5 μg plasmid DNA and 18.75 μl of Plus Reagent (Invitrogen). After gently mixing and 5 min incubation at room temperature 45 μl of Lipofectamine LTX was added to the mixture. This transfection medium was incubated for 30 min at room temperature and added dropwise to the cells, supplemented with 3 ml of fresh culture medium. HEK 293T cells were cotransfected with a receptor construct (6 μg) and CRE-luciferase reporter construct (3 μg), consisting of the open reading frame of the luciferase gene, downstream of a multimerized cAMP-response-element (CRE) and promoter. After transfection, cells were grown overnight before an additional 20 ml of culture medium was supplemented. Cells were again incubated overnight for a final growth phase before luminescence screens were performed.
(§7) The aequorin luminescence assay was used to measure Ca^2+ signaling in CHO cell lines. Cells were detached using phosphate buffered saline (PBS) containing 0.2% EDTA and collected in 10 ml of DMEM/F-12 (without phenol red, with L-glutamine and 10 mM HEPES; Gibco). The viable cells were quantified using a NucleoCounter NC-100 (Chemometic). Cells were pelleted by 4 min centrifugation at 800 rpm at room temperature and resuspended in DMEM/BSA (DMEM/F-12 without phenol red, with L-glutamine and 10 mM HEPES, 0.1% bovine serum albumin) at a concentration of 5×10^6 cells/ml. Cells were then shielded from light and Coelenterazine H (Invitrogen) was added at a final concentration of 5 μM. Cells were gently shaken at room temperature for 4 h under dark conditions, allowing the aequorin holoenzyme to be reconstituted. After a 10-fold dilution in DMEM/BSA, cells were incubated another 30 min under the same conditions. Pharmacological ligands were dissolved in DMEM/BSA and 50 μl of ligand was added to wells of a 96-well plate. Wells containing 50 μl of DMEM/BSA were used as a negative control, while wells containing 1 μM of ATP served as positive control. Incubated cells were added to the wells of the 96-well plate and light emission was measured for 30 s using a Mithras LB940 (Berthold Technologies). After 30 s Triton X-100 (0.2% in DMEM/BSA) was added, lysing the cells and thus serving as an internal reference. Light emission was measured for an additional 8 s after Triton X-100 was introduced in the wells. Light emission from each well was calculated relative to the total response (ligand+Triton X-100) using the output file of Mikrowin2000 software (Mikrotek). Further analysis was done in Graphpad Prism 5.

In assay [6] the test system is Trica-SKR1. Nature of the assay: Aequorin-luminescence assay, CHO-WTA11 cells (Gα16) transfected with Trica-SKR1. Format: cell-based, Tribolium castaneum. The following applies: aequorin bioluminescence. Here is the method: as §5, §6, §7
Assay [7] concerns Trica-SKR1. Nature of the assay: CRE-luciferase reporter-gene assay (cAMP), HEK293T cells transfected with Trica-SKR1. Format: cell-based, Tribolium castaneum. The note with it: HEK293T cells cotransfected with CRE-luciferase; 200 μM IBMX; 3–4 h at 37°C; six independent measurements in duplicate; read-out: EC50, luciferase bioluminescence (cAMP), Trica-SKR1. Here is the method: as §1, §2, §4

Assay [8] has as its system Trica-SKR2. Put plainly: CRE-luciferase reporter-gene assay (cAMP), HEK293T cells transfected with Trica-SKR2. The following applies: HEK293T cells cotransfected with CRE-luciferase; 200 μM IBMX; 3–4 h at 37°C; three independent measurements in duplicate; read-out: EC50, luciferase bioluminescence (cAMP), Trica-SKR2. Format: cell-based, Tribolium castaneum. Here is the method: as §1, §2, §4

Where [9] appears, read: peptide at 1 μM, relative to sTrica-SK(5–13) at 1 μM = 100%, at least three biological repeats, each in duplicate.

For “FDDY(SO3H)GHMRFa [sTrica-SK(5–13), sulfated C-terminal fragment of T. castaneum SK comprising amino acids 5–13, reference compound]”, the EC50 was found to be 1.61 ± 0.45 nM in the assay on Trica-SKR2 [1]; 0.0585 ± 0.024 nM in the assay on Trica-SKR1 [3]; 0.524 ± 0.2 nM with Trica-SKR2 [5] (1 fM to 1 μM, three independent measurements in duplicate); 0.0995 ± 0.028 nM in the assay on Trica-SKR1 [6] (1 fM to 1 μM, ± 95% confidence interval, three independent measurements in duplicate); 4.9 ± 4.2 pM with Trica-SKR1 [7]; 1.4 ± 0.3 nM in the assay with Trica-SKR2 [8]. Moreover, the “signal in empty-vector transfected HEK293T cells” value in assay [2] is “no signal was observed”. For the same substance, the “signal in empty-vector transfected CHO-PAM28 cells” value in assay [4] is recorded as “no signal was observed”. Further, the “concentration at which maximal response was attained, Trica-SKR2” value in the assay on Trica-SKR2 [5] is 100 nM. In the assay on Trica-SKR2 [5] (setting [9]), the “% Trica-SKR2 (relative activation)” value is reported as 100.0%. The “concentration at which maximal response was attained, Trica-SKR1” value in the assay with Trica-SKR1 [6] is 100 nM. Besides, in the assay on Trica-SKR1 [6] (setting [9]), the “% Trica-SKR1 (relative activation)” value turned out to be 100.0%.
